Experimental data reported in US8697738B2, “Alpha-aminoamide derivatives useful in the treatment of addictive disorders” (Newron Pharmaceuticals S.p.A., priority 2004, dated 2014).
“Also recorded” adds a separate entry of the source.

Experiments:
[1] = test system: cocaine-induced hyperactivity; experiment: Cocaine interaction study in mice (cocaine-induced locomotion increase); assay type: in vivo, Swiss-Webster Mice; details: 100 mg/kg ip, cocaine 20 mg/kg ip
From the text: Typically, psychostimulant addictive drugs as amphetamine and cocaine induce an increase in locomotor activity in rodents and primate. Some compounds with anti-addictive potential properties can prevent the increase in locomotor activity induced by psychostimulant drugs. (Katz J L, Kopajtic T A, Myers K A, Mitkus R J, Chider M, Behavioral effects of cocaine: interactions with D1 dopaminergic antagonists and agonists in mice and squirrel monkeys. J Pharmacol Exp Ther. 1999 October; 291(1):265-79).
The effect of test compounds is evaluated in a mice model of cocaine-induced locomotion increase.
Subjects: Swiss-Webster Mice, Male
Apparatus: Automated Photocell Chambers
Drugs: Cocaine 20 mg/kg is administered ip, test compounds dissolved in vehicle are administered ip at different doses (10-100 mg/kg) right before cocaine.
Behavioral test; Animals (8 per experimental group) received ip injection of cocaine (20 mg/kg) or saline and either the test compounds (10-100 mg/kg ip) or their vehicle and locomotor activity is recorded for 1 hour. […]
Maximal effect: The 30 min time period in which cocaine (20 mg/kg) produces the maximal activity is used to determine test compound effect. […] The AD50 (dose that attenuates cocaine-induced stimulation by 50%) is determined from the linear regression analysis.

[2] = test system: patients with idiopathic RLS; experiment: Open label RLS study, 2 week administration in 10 patients with idiopathic RLS; assay type: in vivo, human
Procedure: In an open label study conducted on 10 patients with idiopathic RLS, 2 week administration of (S)-(+)-2-[4-(3-Fluorobenzyloxy)-benzylamino]-propanamide 100 mg/die resulted efficacious in improving RLS symptoms. Patients were included in the study if they fulfilled the minimal diagnostic criteria according to the International RLS Study Group. Patients' symptoms had to interfere with sleep onset or maintenance for at least 6 months and at least 15 nights during the last 12 weeks, and they should have IRLS 10(International Restless Legs Syndrome) score equal to or greater than 15 at baseline assessment. Physical examination, biochemical and haematological laboratory tests and electrocardiogram were performed to ensure that selection criteria were fulfilled. Polysomnography was performed for 2 nights at baseline and 2 nights at the end of treatment, in order to verify the effects of (S)-(+)-2-[4-(3-Fluorobenzyloxy)benzylamino]propanamide on sleep. Efficacy was measured through the following evaluation scales: International Restless Legs Syndrome 10 (IRLS 10), Restless Legs Syndrome Quality of Life (RLS QoL), Work Productivity and Activity Impairment Questionnaire (WPAI RLS) and Clinical Global Impression (CGI part I and CGI part II).
Ten out of 10 patients enrolled were considered eligible for the efficacy analysis: ail of them completed the planned period of treatment of 14+3 days. […] As to the main disease, it was considered severe in 70% of patients according to CGI criteria and confirmed by IRLS-10 score, with an impact on daily activity, that could be quantified (according to WPAI-RLS, and RLS-QoLQ results) in about ⅓ of the usual performances.

cocaine detoxification = details: rats and human; cited from earlier work
smoking cessation = details: 200 mg/day; from 17 to 30%; cited from earlier work
alcohol dependence = details: clinical study; cited from earlier work
[3] = 100 mg/die, 2 weeks, 10 patients

C[C@H](NCc1ccc(OCc2cccc(F)c2)cc1)C(N)=O [(S)-(+)-2-[4-(3-Fluorobenzyloxy)-benzylamino]propanamide]
effect on cocaine-induced hyperactivity (total locomotor activity) [1]: significantly decreased | improvement of RLS symptoms ([2]; 100 mg/die, 2 week administration, 10 patients): efficacious; also recorded: significant improvement | adverse events [2, 3]: no adverse events | tolerability [2, 3]: well tolerated | CGI part II changes from previous visit: Minimally Improved ([2]; Final visit): 5 (50) N (%) | CGI part II changes from previous visit: Much Improved ([2]; Final visit): 2 (20) N (%) | CGI part II changes from previous visit: No change ([2]; Final visit): 1 (10) N (%) | CGI part II changes from previous visit: Very Much Improved ([2]; Final visit): 2 (20) N (%) | IRLS 10 Score, Impact, Mean ([2]; Final visit (baseline 4.20)): 3.00 | IRLS 10 Score, Associate Features, mean ([2]; Final visit (baseline 5.10)): 4.30 | IRLS 10 Score, Severity, mean ([2]; Final visit (baseline 7.00)): 6.00 | IRLS 10 Score, Diagnostic Features, mean ([2]; Final visit (baseline 11.20)): 8.50 | IRLS 10 Score, Total Score, mean ([2]; Final visit (baseline 27.50)): 21.80 | IRLS 10 Score, Diagnostic Features, changes ([2]; Final vs Baseline, p 0.002): −2.70 | IRLS 10 Score, Total Score, changes ([2]; Final vs Baseline, p 0.002): −5.70 | IRLS 10 Score, Impact, changes ([2]; Final vs Baseline, p 0.003): −1.20 | IRLS 10 Score, Severity, changes ([2]; Final vs Baseline, p 0.063): −1.00 | IRLS 10 Score, Associate Features, changes ([2]; Final vs Baseline, p 0.070): −0.80 | CGI part I: patients with stable disease ([2]; after 2 weeks): 40% | CGI part II: patients with improvement of any grading ([2]; after 2 weeks): 90% | CGI part II: patients with no changes ([2]; after 2 weeks): 10% | WPAI-RLS item 6 impairment of daily activities ([2]; after 2 weeks (from 34% at baseline), p=0.005, FIG. 3): 22% | Polysomnographic registration: PLM (Wake+Sleep) Index ([2]; after 2 weeks versus baseline, FIG. 4): statistically significant improvement versus baseline | Polysomnographic registration: PLM Sleep Index ([2]; after 2 weeks versus baseline, FIG. 5): statistically significant improvement versus baseline | Polysomnographic registration: PLM Wake Index ([2]; after 2 weeks versus baseline, FIG. 6): statistically significant improvement versus baseline | RLS-QoLQ total score ([2]; after 2 weeks vs baseline, p=0.002, FIG. 2): significant decrease | CGI part I: patients with improvement in disease situation ([2]; after 2 weeks, P=0,031): 60% | IRLS-10 scale total score, result in words ([2]; after 2 weeks, p=0.002): statistically significant improvement | safety profile ([2]; conclusion of the trial): good safety profile

C#CCN(C)[C@H](C)Cc1ccccc1 [Selegeline, selegiline, reference compound]
effect on cocaine-induced hyperactivity (total locomotor activity) [1]: did not reverse | anti-reinforcing effect during cocaine detoxification (cocaine detoxification): moderate anti-reinforcing effect

NCCNC(=O)c1ccc(Cl)cn1 [lazabemide]
percentage of smoking cessation (smoking cessation): 30%

CC1(C)O[C@@H]2[C@@H](CO[C@@]3(COS(N)(=O)=O)OC(C)(C)O[C@@H]23)O1 [topiramate]
efficacy in the treatment of alcohol dependence (alcohol dependence): efficacious
